In patent US10487068B2, “Pyridazine derivatives as RORc modulators” (Genentech, Inc., priority 2015, dated 2019):

Molecular target: T1, RORc ligand binding domain (Homo sapiens, UniProt P51449)
T1 sequence (P51449 269-508 limits assumed): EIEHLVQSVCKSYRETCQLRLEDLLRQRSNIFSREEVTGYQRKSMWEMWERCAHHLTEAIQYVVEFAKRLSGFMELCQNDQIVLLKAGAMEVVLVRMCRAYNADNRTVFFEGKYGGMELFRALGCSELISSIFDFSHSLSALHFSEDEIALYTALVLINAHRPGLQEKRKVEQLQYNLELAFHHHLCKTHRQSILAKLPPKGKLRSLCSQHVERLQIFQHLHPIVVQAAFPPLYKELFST
Assay: In Vitro RORc Ligand Binding Assay
Details: RORc IC50, radioligand 25-[3H]hydroxycholesterol 6 nM; 0.6 ug/mL RORc receptor; 3 h at 25° C.

Structure (SMILES)	IC50 [nM]
C[C@H](CO)NC(=O)c1ccnc([C@@]23CC[C@@H](c4cc(-c5c(F)cccc5F)nnc42)C3(C)C)c1 [Example 67]	276
C[C@@H](CO)NC(=O)c1ccnc([C@@]23CC[C@@H](c4cc(-c5c(F)cccc5F)nnc42)C3(C)C)c1 [Example 68]	553
CC1(C)[C@H]2CC[C@]1(c1cc(C(N)=O)ccn1)c1nnc(-c3c(F)cccc3F)cc12 [Example 69]	26.4
CNC(=O)c1ccnc([C@@]23CC[C@@H](c4cc(-c5c(F)cccc5F)nnc42)C3(C)C)c1 [Example 70]	50
CC(=O)Nc1ccnc([C@@]23CC[C@@H](c4cc(-c5c(F)cccc5F)nnc42)C3(C)C)c1 [Example 74]	118
CN(C)C(=O)c1ccnc([C@@]23CC[C@@H](c4cc(-c5c(F)cccc5F)nnc42)C3(C)C)c1 [Example 76]	1470
CC(C)(O)CNC(=O)c1ccnc([C@@]23CC[C@@H](c4cc(-c5c(F)cccc5F)nnc42)C3(C)C)c1 [Example 77]	139
CC1(C)[C@H]2CC[C@]1(c1cc(NS(C)(=O)=O)ccn1)c1nnc(-c3c(F)cccc3F)cc12 [Example 78]	1190
CC1(C)[C@H]2CC[C@]1(c1cc(CO)ccn1)c1nnc(-c3c(F)cccc3F)cc12 [Example 79]	47.3
CC1(C)[C@H]2CC[C@]1(c1cccc(NS(C)(=O)=O)n1)c1nnc(-c3c(F)cccc3F)cc12 [Example 80, N-(6-((5R,8S)-3-(2,6-difluorophenyl)-9,9-dimethyl-5,6,7,8-tetrahydro-5,8-methanocinnolin-8-yl)pyridin-2-yl)methanesulfonamide]	11.2
CC1(C)[C@H]2CC[C@]1(c1ccnc(C(=O)NCCO)n1)c1nnc(-c3c(F)cccc3F)cc12 [Example 81]	52.8
CC1(C)[C@H]2CC[C@]1(c1cccc(C(=O)NCCS(C)(=O)=O)n1)c1nnc(-c3c(F)cccc3F)cc12 [Example 83, 6-((5R,8S)-3-(2,6-difluorophenyl)-9,9-dimethyl-5,6,7,8-tetrahydro-5,8-methanocinnolin-8-yl)-N-(2-(methylsulfonyl)ethyl)picolinamide]	13.3
CC1(C)[C@H]2CC[C@]1(c1cncc(C(=O)NCCCO)n1)c1nnc(-c3c(F)cccc3F)cc12 [Example 85, 6-((5R,8S)-3-(2,6-difluorophenyl)-9,9-dimethyl-5,6,7,8-tetrahydro-5,8-methanocinnolin-8-yl)-N-(3-hydroxypropyl)pyrazine-2-carboxamide]	30.6
CC1(C)[C@H]2CC[C@]1(c1cncc(C(=O)NCCC#N)n1)c1nnc(-c3c(F)cccc3F)cc12 [Example 90, N-(2-cyanoethyl)-6-((5R,8S)-3-(2,6-difluorophenyl)-9,9-dimethyl-5,6,7,8-tetrahydro-5,8-methanocinnolin-8-yl)pyrazine-2-carboxamide]	23
CC1(C)[C@H]2CC[C@]1(c1cncc(C(=O)N[C@H]3C[C@@H](O)C3)n1)c1nnc(-c3c(F)cccc3F)cc12 [Example 93, 6-((5R,8S)-3-(2,6-difluorophenyl)-9,9-dimethyl-5,6,7,8-tetrahydro-5,8-methanocinnolin-8-yl)-N-((1s,3R)-3-hydroxycyclobutyl)pyrazine-2-carboxamide]	31.8
CC1(C)[C@H]2CC[C@]1(c1cncc(C(=O)N[C@H]3C[C@H](O)C3)n1)c1nnc(-c3c(F)cccc3F)cc12 [Example 94, 6-((5R,8S)-3-(2,6-difluorophenyl)-9,9-dimethyl-5,6,7,8-tetrahydro-5,8-methanocinnolin-8-yl)-N-((1r,3S)-3-hydroxycyclobutyl)pyrazine-2-carboxamide]	21.5

The remaining lines, values ahead:

IC50 [nM]	Structure (SMILES)
1510	CC1(C)[C@H]2CC[C@]1(c1cc(N)ccn1)c1nnc(-c3c(F)cccc3F)cc12 [Example 71]
2.6	CC1(C)[C@H]2CC[C@]1(c1cccc(N)n1)c1nnc(-c3c(F)cccc3F)cc12 [Example 72, 6-((5R,8S)-3-(2,6-difluorophenyl)-9,9-dimethyl-5,6,7,8-tetrahydro-5,8-methanocinnolin-8-yl)pyridin-2-amine]
32.4	CC1(C)[C@@H]2CC[C@@]1(c1cncc(C(=O)NCCO)n1)c1nnc(-c3c(F)cccc3F)cc12 [Example 73, 6-((5S,8R)-3-(2,6-difluorophenyl)-9,9-dimethyl-5,6,7,8-tetrahydro-5,8-methanocinnolin-8-yl)-N-(2-hydroxyethyl)pyrazine-2-carboxamide]
167	CC1(C)[C@H]2CC[C@]1(c1cc(-c3nnc(CO)o3)ccn1)c1nnc(-c3c(F)cccc3F)cc12 [Example 75]
129	CC1(C)[C@@H]2CC[C@@]1(c1cncc(C(=O)NC3COC3)n1)c1nnc(-c3c(F)cccc3F)cc12 [Example 82, 6-((5S,8R)-3-(2,6-difluorophenyl)-9,9-dimethyl-5,6,7,8-tetrahydro-5,8-methanocinnolin-8-yl)-N-(oxetan-3-yl)pyrazine-2-carboxamide]
26.3	CC1(C)[C@H]2CC[C@]1(c1cncc(-c3nnc(CO)o3)n1)c1nnc(-c3c(F)cccc3F)cc12 [Example 84, (5-(6-((5R,8S)-3-(2,6-difluorophenyl)-9,9-dimethyl-5,6,7,8-tetrahydro-5,8-methanocinnolin-8-yl)pyrazin-2-yl)-1,3,4-oxadiazol-2-yl)methanol]
45	CC(C)(O)CNC(=O)c1cncc([C@@]23CC[C@@H](c4cc(-c5c(F)cccc5F)nnc42)C3(C)C)n1 [Example 86, 6-((5R,8S)-3-(2,6-difluorophenyl)-9,9-dimethyl-5,6,7,8-tetrahydro-5,8-methanocinnolin-8-yl)-N-(2-hydroxy-2-methylpropyl)pyrazine-2-carboxamide]
15.8	CC1(C)[C@H]2CC[C@]1(c1cncc(CO)n1)c1nnc(-c3c(F)cccc3F)cc12 [Example 87, (6-((5R,8S)-3-(2,6-difluorophenyl)-9,9-dimethyl-5,6,7,8-tetrahydro-5,8-methanocinnolin-8-yl)pyrazin-2-yl)methanol]
5.4	Cc1cnc(-c2cncc([C@@]34CC[C@@H](c5cc(-c6c(F)cccc6F)nnc53)C4(C)C)n2)o1 [Example 88, 2-(6-((5R,8S)-3-(2,6-difluorophenyl)-9,9-dimethyl-5,6,7,8-tetrahydro-5,8-methanocinnolin-8-yl)pyrazin-2-yl)-5-methyloxazole]
12.8	C[C@H](O)CNC(=O)c1cncc([C@]23CC[C@H](c4cc(-c5c(F)cccc5F)nnc42)C3(C)C)n1 [Example 89, 6-((5S,8R)-3-(2,6-difluorophenyl)-9,9-dimethyl-5,6,7,8-tetrahydro-5,8-methanocinnolin-8-yl)-N-((S)-2-hydroxypropyl)pyrazine-2-carboxamide]
40.8	CN(CCO)C(=O)c1cncc([C@@]23CC[C@@H](c4cc(-c5c(F)cccc5F)nnc42)C3(C)C)n1 [Example 91, 6-((5R,8S)-3-(2,6-difluorophenyl)-9,9-dimethyl-5,6,7,8-tetrahydro-5,8-methanocinnolin-8-yl)-N-(2-hydroxyethyl)-N-methylpyrazine-2-carboxamide]
20.6	CC1(C)[C@H]2CC[C@]1(c1cncc(C(=O)NCC#N)n1)c1nnc(-c3c(F)cccc3F)cc12 [Example 92, N-(cyanomethyl)-6-((5R,8S)-3-(2,6-difluorophenyl)-9,9-dimethyl-5,6,7,8-tetrahydro-5,8-methanocinnolin-8-yl)pyrazine-2-carboxamide]
